Article PMC5520944 (Cell Death & Disease, 2017)
Where a name gives a salt, the structure may show the parent alone. Read-outs that look alike come from different tables or passages of the source.

Experiments:
L929sAhFas = test: cells; design: high-content necroptosis screen, percentage PI-positive nuclei as percent of DMSO plus stimulus control
Description: To identify novel inhibitors or regulators of necroptosis, 500 small compounds from libraries targeting autophagy, kinases, phosphatases, proteases and redox balance were screened for their ability to block TNF-induced necroptosis in murine L929sAhFas cells. Three conditions were used to induce necroptosis in L929 cells: TNF alone, TNF+TAK1 inhibitor (TAK1i) and TNF+zVAD-fmk, a pan-caspase inhibitor. Inhibition of TAK1 or caspases sensitizes to necroptosis.[13], [32] Necroptosis, measured as the percentage of PI-positive nuclei normalized to the plate-specific DMSO control, was determined for each compound (Supplementary Figure 1A). […] After compound treatment, L929sAhFas (a) or L929 (b) cells were stimulated with mTNF (T), mTNF+Tak1i (TiT) or mTNF+zVAD (zVT) (Supplementary Figure 1A and B). (a) Cell death percentage (% PI-positive nuclei) or cell loss was calculated as percent of control (DMSO+stimulus). […] (b) Cell loss (luminescence-based readout for ATP) was calculated as percent of control (DMSO+stimulus). […] In stimulated conditions, % PI-positive nuclei was determined as % of DMSO control. Data represent mean values±S.E.M. of two independent experiments. Cells were stained with Hoechst and PI and percentage PI-positive nuclei was determined using high-content image analysis (BD pathway Bioimager). (d) L929sAhFas cells were treated with Sorafenib (concentration as indicated) for 24 h. Then, stimulus was removed, 50 cells/condition seeded and colonies counted with crystal violet staining after 10 days incubation. […] Schemes of workflow screening assays in L929 cell lines. (A) Scheme of the workflow of a high-content screening assay on L929sAhFas cells using mTNF (T) and mTNF+Tak1i ((5Z)-7-Oxozeaenol) (TiT) to induce necroptotic cell death. Nec-1 and zVAD-fmk were used as protective and sensitizing benchmarks, respectively, on all plates. (B) Scheme of the workflow of a CellTiter-Glo luminescent cell viability screening assay on L929 cells using mTNF+zVAD (zVT) to induce necroptotic cell death. Supplementary Figure S2. Z’ calculation for cell death screening assays in L929 cells. (A) Z’ calculation for cell death screening assay (Fig. 1A) in mTNF-stimulated L929sAhFas cells. (B) Z’ calculation for cell death screening assay (Fig. 1A) in L929sAhFas cells stimulated with mTNF + Taki.

Molm13 = test: cells; design: species or system Jurkat FADD-/-, HT-29, MV4-11 or Molm13; protection from induced necroptosis, cell death by PI staining and flow cytometry; details: Homo sapiens, MOLM-13; BV6 + zVAD; inhibition of induced cell death
Method: Figure 2 Sorafenib inhibits TNF-induced RIPK1-dependent cell death in both murine and human cell lines and rescues AML cells from Smac mimetic-induced necroptosis. […] (c,d) HT-29 and Jurkat FADD−/− cells were pretreated for 1 h with DMSO, Nec-1 or Sorafenib (concentrations as indicated) and stimulated for 6 h with 30 ng/ml hTNF, 1 μM BV6 and 30 μM zVAD (HT-29) or stimulated for 10 h with 100 ng/ml hTNF (Jurkat FADD−/−). (a-d) Data were normalized to DMSO-treated control cells and represent the mean value±S.E.M. of three independent experiments. Toxic concentrations were removed from the analysis. L929sAhFas and MEF cells were stained with Hoechst and PI and percentage PI-positive nuclei was determined using high-content image analysis (BD pathway Bioimager). For HT-29 and Jurkat FADD−/− cells, cell death was determined by PI staining and flow cytometry. […] Cell death in AML cells was determined by PI staining and flow cytometry. Mean and S.D. of three independent experiments performed in triplicate are shown Supplementary materials and methods Immunoblotting. After treatments, cells were washed twice with PBS and lysed with Laemmli buffer (2x) directly or with NP-40 lysis buffer (150 mM NaCl, 1% NP-40, 10% glycerol, 10 mM Tris-HCl pH 8) supplemented with EDTA-free protease inhibitor cocktail tablets (Roche Diagnostics, Basel, Switzerland, #11873580001) and phosphatase inhibitor cocktail tablets (Roche Diagnostics, #04906837001). After lysis with NP-40 lysis buffer, lysates were kept 10 minutes on ice and centrifugated in a microcentrifuge (10 min, 13.000 rpm, 4°C). Supernatant was used for SDS-PAGE and immunoblotting. FACS analysis. FACS analysis was used to measure dying HT-29, Jurkat FADD-/- and AML cells. Treated HT-29 cells were harvested, washed with PBS and incubated with Annexin V binding buffer (BD Biosciences, 556454) containing 7-AAD and Annexin V-FITC for 15 min according to the manufacturer’s protocol. FACSCalibur^TM Flow Cytometer (BD Biosciences) and CellQuest Pro software were used to perform experiments and analyze data respectively.

CNC(=O)c1cc(Oc2ccc(NC(=O)Nc3ccc(Cl)c(C(F)(F)F)c3)cc2)ccn1 [Sorafenib tosylate]
activity at 10 µM (L929sAhFas; read-out: cell death TNF (POC)): 41.5%
activity at 10 µM (L929sAhFas; read-out: cell death TNF/Taki (POC)): 11.8%
IC50 (Molm13): ≤ 30 nM
